ChEMBL document CHEMBL1134695, “Synthesis and evaluation of novel quinolinones as HIV-1 reverse transcriptase inhibitors” (Bioorg Med Chem Lett, 2001)

Legend:
[1] = target: Human immunodeficiency virus type 1 reverse transcriptase (Human immunodeficiency virus 1, UniProt Q72547); test: Inhibition of HIV-1 reverse transcriptase.
[2] = system: Human immunodeficiency virus 1; test: Antiviral activity against HIV-1 using antiinfectivity assay; assay type: functional, organism-based
[3] = target: Human immunodeficiency virus type 1 reverse transcriptase (Human immunodeficiency virus 1) (UniProt Q72547)
[4] = system: Human immunodeficiency virus type 1 reverse transcriptase (Human immunodeficiency virus 1), Q72547 [K103N]
[5] = system: Human immunodeficiency virus type 1 reverse transcriptase (Human immunodeficiency virus 1), Q72547 [UNDEFINED MUTATION]

For `O=C1Nc2ccc(Cl)cc2[C@@](C#CC2CC2)(C(F)(F)F)[C@H]1OCc1cccc(F)c1`, the IC50 [1] was 1.78 µM and the IC90 [2] was 0.201 µM.
Work on `Nc1ccc(CO[C@H]2C(=O)Nc3ccc(Cl)cc3[C@@]2(C#CC2CC2)C(F)(F)F)cc1` yielded an IC90 [3] of 0.049 µM, an IC90 [4] of 1.08 µM and a C90 [5] of 3.85 µM. It also gave an IC50 [1] of 0.412 µM and an IC90 [2] of 0.021 µM.
`O=C1Nc2ccc(Cl)cc2[C@@](C#CC2CC2)(C(F)(F)F)[C@H]1OCc1ccncc1` gave an IC90 [3] of 0.023 µM, an IC90 [4] of 0.05 µM and a C90 [5] of 4.83 µM. For the same compound, the IC50 [1] was 0.129 µM and the IC90 [2] was 0.019 µM.
`O=C1Nc2ccc(Cl)cc2[C@@](C#CC2CC2)(C(F)(F)F)[C@H]1OCc1ccccc1F` showed an IC50 [1] of 1.3 µM and an IC90 [2] of 0.14 µM.
With `CCCO[C@H]1C(=O)Nc2ccc(Cl)cc2[C@@]1(C#CC1CC1)C(F)(F)F` the IC50 [1] was 1.05 µM and the IC90 [2] was 0.062 µM.
`O=C1Nc2ccc(Cl)cc2[C@@](C#CC2CC2)(C(F)(F)F)[C@H]1OCc1ccc(F)cc1` showed an IC50 [1] of 0.899 µM and an IC90 [2] of 0.112 µM.
`COC(=O)N[C@H]1C(=O)Nc2ccc(Cl)cc2[C@@]1(C#CC1CC1)C(F)(F)F` showed an IC50 [1] greater than 2 µM and an IC90 [2] of 0.212 µM.
With `CC(C)=CCO[C@H]1C(=O)Nc2ccc(Cl)cc2[C@@]1(C#CC1CC1)C(F)(F)F` the IC50 [1] was greater than 2 µM and the IC90 [2] was greater than 1 µM.
Work on `Nc1cccc(CO[C@H]2C(=O)Nc3ccc(Cl)cc3[C@@]2(C#CC2CC2)C(F)(F)F)c1` yielded an IC50 [1] of 1.46 µM and an IC90 [2] of 0.138 µM.
`O=C1Nc2ccc(Cl)cc2[C@@](C#CC2CC2)(C(F)(F)F)[C@H]1OCc1ccccn1` was tested, and the IC50 [1] was 1.57 µM and the IC90 [2] was 0.14 µM.
`O=C1Nc2ccc(Cl)cc2[C@@](C#CC2CC2)(C(F)(F)F)[C@H]1NCc1ccccc1` showed an IC50 [1] greater than 2 µM and an IC90 [2] of 0.218 µM.
With `O=C1Nc2ccc(Cl)cc2[C@@](C#CC2CC2)(C(F)(F)F)[C@H]1OCC1CC1` the IC50 [1] was 1.43 µM and the IC90 [2] was 0.13 µM.
`O=C1Nc2ccc(Cl)cc2[C@@](C#CC2CC2)(C(F)(F)F)[C@H]1O` gave an IC50 [1] greater than 2 µM and an IC90 [2] of 0.637 µM.
Work on `Nc1ccccc1CO[C@H]1C(=O)Nc2ccc(Cl)cc2[C@@]1(C#CC1CC1)C(F)(F)F` yielded an IC50 [1] of 1.02 µM and an IC90 [2] of 0.115 µM.
Work on `O=C1C[C@](C#CC2CC2)(C(F)(F)F)c2cc(Cl)ccc2N1` yielded an IC90 [3] of 0.992 µM, an IC90 [4] of 1.77 µM and an IC50 [1] of 0.13 µM. It also gave an IC90 [2] of 0.014 µM.
In the case of `Nc1ccc(CO[C@H]2C(=O)Nc3ccc(Cl)cc3[C@@]2(C#CC2CC2)C(F)(F)F)cc1F`, the IC50 [1] is reported as 0.241 µM and the IC90 [2] is reported as 0.026 µM.
In the case of `O=C1Nc2ccc(Cl)cc2[C@@](C#CC2CC2)(C(F)(F)F)[C@H]1OCc1ccccc1`, the IC50 [1] is reported as 0.44 µM and the IC90 [2] is reported as 0.071 µM.
With `O=C1Nc2ccc(Cl)cc2[C@@](C#CC2CC2)(C(F)(F)F)[C@H]1OCc1cccnc1` the IC50 [1] was 0.438 µM and the IC90 [2] was 0.02 µM.
`CC(=O)N[C@H]1C(=O)Nc2ccc(Cl)cc2[C@@]1(C#CC1CC1)C(F)(F)F` gave an IC50 [1] greater than 2 µM and an IC90 [2] of 0.917 µM.
